What all share (type): functional
In one test the test system is Lemna minor. In words: Herbicidal activity against Lemna minor (common duckweed) at 1 ppm after 9 days relative to control.
Test [1] has as its system Agrostis stolonifera var. palustris. In words: Herbicidal activity against Agrostis stolonifera var. palustris at 1 ppm after 9 days relative to control.
The test system of a further test is Ustilago maydis. In words: Antifungal activity against Ustilago maydis on rice plant at 25 ppm after 24 hr. As to conditions: Mycosarcoma maydis.
The next test has as its system Phytophthora infestans. Put plainly: microbe, parasite or virus in culture. The conditions noted are these: in Oryza sativa, 24 h.
A further test relates to Pyricularia oryzae. In words: microbe, parasite or virus in culture. The conditions noted are these: 24 h.
Another test concerns Rhizoctonia solani. Put plainly: Antifungal activity against Rhizoctonia solani on rice plant at 25 ppm after 24 hr.
The next test deals with Zymoseptoria tritici. In words: Antifungal activity against Zymoseptoria tritici on wheat plant at 25 ppm after 24 hr.
The test system of test [2] is Parastagonospora nodorum. Put plainly: Antifungal activity against Phaeosphaeria nodorum on wheat plant at 25 ppm after 24 hr.
The test system of a further test is Puccinia recondita. Put plainly: Antifungal activity against Puccinia recondita on wheat plant assessed as disease control at 100 ppm after 24 hr.
Test [3] concerns Parastagonospora nodorum. In words: Antifungal activity against Phaeosphaeria nodorum on wheat plant assessed as disease control at 100 ppm after 24 hr.
Test [4] deals with Blumeria graminis f. sp. tritici. In words: Antifungal activity against Blumeria graminis f. sp. tritici on wheat plant assessed as disease control at 100 ppm after 24 hr.

As a reminder, the inhibition is the change of the read-out against control, counted positive when it falls. Take `COc1cc2c(cc1OC)-c1c(C)c3ccc(OC)c(OC)c3c[n+]1CC2.[Cl-]`: the Activity is 65% in the test with Lemna minor; 0% in test [1]; 0% in the test on Puccinia recondita; 0% in the test with Parastagonospora nodorum [3]; 0% in [4]. For the same molecule, the inhibition at 25 ppm with Ustilago maydis, with Phytophthora infestans, in the test on Pyricularia oryzae, in the test on Rhizoctonia solani, with Zymoseptoria tritici and with Parastagonospora nodorum [2] was 0% throughout.

`CCc1c2[n+](cc3c(OC)c(OC)ccc13)CCc1cc(OC)c(OC)cc1-2.[Cl-]`: the Activity in the test with Lemna minor worked out at 70%; in test [1], 0%; in the test with Puccinia recondita it was 0%; with Parastagonospora nodorum [3], 0%; in test [4], 0%. For the same molecule, the inhibition at 25 ppm in the test with Ustilago maydis, in the test on Phytophthora infestans, with Pyricularia oryzae, with Rhizoctonia solani, with Zymoseptoria tritici and with Parastagonospora nodorum [2] was 0% in each case.

For the molecule `CCCc1c2[n+](cc3c(OC)c(OC)ccc13)CCc1cc(OC)c(OC)cc1-2.[Cl-]`, the Activity with Lemna minor turned out to be 65%; in test [1] it was 0%; with Puccinia recondita, 0%; in the test on Parastagonospora nodorum [3] it was 73%; in test [4], 0%. The inhibition at 25 ppm in the test with Ustilago maydis, in the test with Phytophthora infestans, in the test with Pyricularia oryzae, with Rhizoctonia solani, with Zymoseptoria tritici and in the test with Parastagonospora nodorum [2] was 0% throughout.

Consider `CCCCc1c2[n+](cc3c(OC)c(OC)ccc13)CCc1cc3c(cc1-2)OCO3.[Cl-]`, for which the Activity was determined as 60% in the test with Lemna minor; 0% in [1]; 0% with Puccinia recondita; 67% in the test on Parastagonospora nodorum [3]; 0% in test [4]. Also, the inhibition at 25 ppm in the test on Ustilago maydis was determined as 0%; in the test with Phytophthora infestans, 0%; with Pyricularia oryzae it was 0%; with Rhizoctonia solani, 0%; in the test on Zymoseptoria tritici it was 90%; with Parastagonospora nodorum [2] it was 0%.

In the case of `CCCCCCc1c2[n+](cc3c(OC)c(OC)ccc13)CCc1cc3c(cc1-2)OCO3.[Cl-]`, the Activity in the test on Lemna minor stood at 60%; in test [1] it was 0%; in the test with Puccinia recondita, 83%; with Parastagonospora nodorum [3], 87%; in test [4], 0%. For the same molecule, the inhibition at 25 ppm in the test on Ustilago maydis was 0%; in the test on Phytophthora infestans, 0%; in the test on Pyricularia oryzae, 0%; in the test with Rhizoctonia solani it was 0%; with Zymoseptoria tritici, 100%; with Parastagonospora nodorum [2], 0%.

As to `CCCc1c2[n+](cc3c(OC)c(OC)ccc13)CCc1cc3c(cc1-2)OCO3.[Cl-]`, the Activity with Lemna minor is given as 65%; in [1], 0%; in the test with Puccinia recondita, 0%; in the test with Parastagonospora nodorum [3], 67%; in [4], 0%. Moreover, the inhibition at 25 ppm with Ustilago maydis was 0%; with Phytophthora infestans it was 0%; in the test with Pyricularia oryzae, 0%; in the test with Rhizoctonia solani, 0%; in the test on Zymoseptoria tritici, 90%; in the test with Parastagonospora nodorum [2] it was 0%.

On to `COc1ccc2c(C)c3[n+](cc2c1OC)CCc1cc2c(cc1-3)OCO2.[Cl-]`, for which the Activity with Lemna minor is 75%; in test [1], 0%; in the test with Puccinia recondita, 75%; in the test on Parastagonospora nodorum [3], 0%; in test [4] it was 0%. In addition, the inhibition at 25 ppm with Ustilago maydis amounted to 0%; in the test with Phytophthora infestans it was 0%; with Pyricularia oryzae, 0%; in the test on Rhizoctonia solani, 0%; with Zymoseptoria tritici, 80%; in the test on Parastagonospora nodorum [2] it was 0%.

In the case of `CCc1c2[n+](cc3c(OC)c(OC)ccc13)CCc1cc3c(cc1-2)OCO3.[Cl-]`, the Activity in the test on Lemna minor was found to be 70%; in test [1], 0%; in the test on Puccinia recondita it was 58%; with Parastagonospora nodorum [3], 60%; in test [4], 0%. Besides, the inhibition at 25 ppm with Ustilago maydis was 0%; with Phytophthora infestans it was 0%; in the test with Pyricularia oryzae, 0%; in the test on Rhizoctonia solani, 0%; in the test on Zymoseptoria tritici, 90%; in the test on Parastagonospora nodorum [2], 0%.

Regarding `CCOc1c(OC)ccc2c(CC)c3[n+](cc12)CCc1cc2c(cc1-3)OCO2.[Cl-]` [9-O-ETHYL-13-ETHYLBERBERRUBINE], the Activity with Lemna minor is 70%; in [1], 0%; in the test with Puccinia recondita it was 8%; with Parastagonospora nodorum [3] it was 87%; in test [4], 0%. The inhibition at 25 ppm turned out to be 0% with Ustilago maydis; 0% with Phytophthora infestans; 0% in the test with Pyricularia oryzae; 0% in the test with Rhizoctonia solani; 90% in the test on Zymoseptoria tritici; 0% in the test with Parastagonospora nodorum [2].

With `CCOc1c(OC)ccc2cc3[n+](cc12)CCc1cc2c(cc1-3)OCO2.[Cl-]` [9-O-ETHYLBERBERRUBINE], the Activity in the test with Lemna minor came to 70%; in test [1], 0%; with Puccinia recondita, 75%; in the test on Parastagonospora nodorum [3], 0%; in [4], 0%. Moreover, the inhibition at 25 ppm with Ustilago maydis stood at 0%; with Phytophthora infestans, 0%; in the test on Pyricularia oryzae, 0%; in the test on Rhizoctonia solani, 0%; in the test on Zymoseptoria tritici, 90%; in the test on Parastagonospora nodorum [2] it was 0%.

In the case of `CCCCCCc1c2[n+](cc3c(OC)c(OC)ccc13)CCc1cc(OC)c(OC)cc1-2.[Cl-]` [13-HEXYLPALMATINE], the Activity is 70% with Lemna minor; 0% in [1]; 67% with Puccinia recondita; 80% in the test with Parastagonospora nodorum [3]; 0% in test [4]. The inhibition at 25 ppm turned out to be 0% in the test on Ustilago maydis; 0% in the test with Phytophthora infestans; 0% in the test on Pyricularia oryzae; 0% in the test on Rhizoctonia solani; 100% in the test with Zymoseptoria tritici; 0% in the test with Parastagonospora nodorum [2].

Consider `COc1ccc2c(O)c3[n+](cc2c1OC)CCc1cc2c(cc1-3)OCO2.[Cl-]` [13-HYDROXYBERBERINE], for which the Activity in the test on Lemna minor came out at 0%; in test [1] it was 0%; with Puccinia recondita, 67%; in the test with Parastagonospora nodorum [3], 0%; in test [4], 41%. Also, the inhibition at 25 ppm stood at 0% in the test on Ustilago maydis; 40% in the test with Phytophthora infestans; 0% with Pyricularia oryzae; 0% in the test with Rhizoctonia solani; 0% in the test with Zymoseptoria tritici; 0% with Parastagonospora nodorum [2].

Consider `COc1ccc2cc3[n+](cc2c1OC)CCc1cc2c(cc1-3)OCO2.[Cl-]` [BERBERINE CHLORIDE], for which the Activity in the test on Lemna minor is 75%; in test [1], 0%; in the test with Puccinia recondita, 0%; with Parastagonospora nodorum [3], 0%; in test [4], 0%. The inhibition at 25 ppm with Ustilago maydis was 0%; with Phytophthora infestans it was 0%; in the test on Pyricularia oryzae, 0%; in the test on Rhizoctonia solani, 0%; in the test with Zymoseptoria tritici it was 90%; in the test on Parastagonospora nodorum [2] it was 0%.

Turning to `COc1ccc2cc3[n+](cc2c1O)CCc1cc2c(cc1-3)OCO2` [BERBERRUBINE], the Activity (with Lemna minor; in test [1]; in the test on Puccinia recondita; in the test on Parastagonospora nodorum [3]; in test [4]) was 0% each time. Moreover, the inhibition at 25 ppm in the test with Ustilago maydis, with Phytophthora infestans, in the test on Pyricularia oryzae, in the test with Rhizoctonia solani, in the test with Zymoseptoria tritici and in the test with Parastagonospora nodorum [2] was 0% each time.

Take `COc1cc2c(cc1OC)-c1cc3ccc(OC)c(OC)c3c[n+]1CC2.[Cl-]` [PALMATINE CHLORIDE]: the Activity (in the test on Lemna minor; in test [1]; with Puccinia recondita; in the test with Parastagonospora nodorum [3]; in test [4]) was 0% in each case. Further, the inhibition at 25 ppm was found to be 0% with Ustilago maydis; 0% in the test on Phytophthora infestans; 0% in the test with Pyricularia oryzae; 0% in the test with Rhizoctonia solani; 80% in the test on Zymoseptoria tritici; 0% with Parastagonospora nodorum [2].

On to `COc1cc2c(cc1OC)-c1cc3ccc(OC)c(O)c3c[n+]1CC2.[Cl-]` [PALMATRUBINE], for which the Activity (with Lemna minor; in test [1]; in the test with Puccinia recondita; in the test with Parastagonospora nodorum [3]; in test [4]) was 0% in each case. The inhibition at 25 ppm in the test on Ustilago maydis, in the test with Phytophthora infestans, in the test with Pyricularia oryzae, in the test with Rhizoctonia solani, with Zymoseptoria tritici and in the test with Parastagonospora nodorum [2] was 0% in each case.
